Results on five substances are retold here after patent publication US20030166502A1, “Differential regulation of T cell survival and proliferation” (Washington University, priority 2001, published 2003).

What all share (assay type): cell-based, mice
In assay [1] the test system is CD28-deficient DO11.10 splenocytes (T cells). Kind of assay: Proliferation assay: tritiated thymidine incorporation of retrovirally infected splenocytes stimulated with OVA(323-339) peptide and APC. To be noted: CD28-deficient T cells reconstituted with the construct; for CD28-dependent proliferation: OVA(323-339) peptide plus T-depleted irradiated Balb/c splenocytes, final 8 h of 72 h culture.

The next assay concerns Bcl-XL. Kind of assay: Bcl-XL expression by Western blot in retrovirally infected T cells. To be noted: cells expressing the construct, anti-CD3 (10 μg/ml) alone or with soluble anti-CD28 (1.0 μg/ml).
The test system of a further assay is IL-2. Kind of assay: IL-2 content of culture supernatants by CTLL-2 bioassay. Particulars: cells expressing the construct; OVA peptide antigen or antigen plus anti-CD28 (1.0 μg/ml); supernatant at 48 hours. Here is the method: FIG. 3 contains three bar graphs. Splenocytes from CD28-deficient DO11.10 mice were infected with retrovirus encoding either control (GFPRV) or wild type CD28 (FLCD28) or mutant CD28 constructs and stimulated with OVA(323-339) peptide alone, with CTLA4Ig (10 μg/ml) or with anti-CD28 mAb (1.0 μg/ml). Culture supernatant was harvested at 48 hours and assessed for IL-2 by CTLL-2 bioassay. Shown is the tritiated thymidine incorporation of the CTLL-2 cells. The mean +/−the std deviation of quadruplicate wells is plotted. Data from one representative experiment is shown. A) CTLL-2 assay following stimulation with 0.1 μM OVA. B) CTLL-2 assay following stimulation with 0.03 μM OVA.
Proliferation assays: Wild type or CD28-deficient DO11.10 splenocytes were isolated and infected with retrovirus encoding for either vector alone, full-length CD28, or mutant CD28 proteins. 5×10^4 infected cells were cocultured with 1.5×10^5 T-depleted, irradiated splenocytes from Balb/c mice. Graded doses of OVA(323-339) peptide were added alone or in combination with murine CTLA4Ig (10 μg/ml, provided by Genetics Institute, Cambridge Mass.), anti-CD28 mAb (1.0 μg/ml) or control Ig. Proliferation was determined by tritiated thymidine incorporation for the final 8 hours of a 72 hour culture. All conditions were plated in quadruplicate and the mean +/− standard deviation of the quadruplicate wells was determined. Culture supernatants were harvested from replicate plates at 48 hours and were assayed for IL-2 content by CTLL-2 bioassay. All experiments were repeated a minimum of three times. Representative data from one experiment is presented.
CD28 regulates IL-2 by both transcriptional and post-transcriptional processes (Fraser, J. D., etal., 1991. CD28. Science 251:313. Lindsten, T., et al 1989. Science 244:339). […]

Entries after “also recorded” stand apart in the source; their conditions may differ.

Take “FLCD28: full-length wild type murine CD28 expressed by retrovirus (SEQ ID NO: 3) (IWTNSRRLLQSDYMNMTPRRPGLTRKPYQPYAPARDFAAYRP; listed as Homo sapiens)”: in assay [1], the CD28-dependent proliferation result is given as “strong proliferative response”. The “induction of Bcl-XL protein” value in the assay with Bcl-XL is reported as “CD28-dependent induction of Bcl-XL protein”.

Regarding “CD28d16: CD28 mutant with deletion of the C-terminal 16 amino acids (SEQ ID NO: 5) (IWTNSRRLLQSDYMNMTPRRPGLTRK; listed as Homo sapiens)”, the CD28-dependent proliferation result in assay [1] was “did not produce any significant CD28-dependent proliferation”. Also, the “induction of Bcl-XL protein” value in the assay on Bcl-XL is “unable to induce Bcl-XL induction”.

For “CD28Y170F: mutant CD28 with phenylalanine substituted for the tyrosine at position 170 (SEQ ID NO: 6) (IWTNSRRLLQSDFMNMTPRRPGLTRKPYQPYAPARDFAAYRP; listed as Homo sapiens)”, the CD28-dependent proliferation entry in assay [1] is given as “appeared normal”. Besides, the “CD28-dependent proliferation, % proliferation of controls” value in assay [1] (multiple experiments (FIG. 2B)) is reported as 60-80%. For the same substance, in the assay on IL-2, the IL-2 secretion entry is on record as “comparable to wild type; also recorded: equivalent levels as cells reconstituted with wild type CD28”. The “induction of Bcl-XL protein” value with Bcl-XL is “unable to induce Bcl-XL induction”.

Regarding “CD28P187,190A: CD28 mutant with alanine instead of proline residues at position 187 and 190 (SEQ ID NO: 7) (IWTNSRRLLQSDYMNMTPRRPGLTRKPYQAYAAARDFAAYRP; listed as Homo sapiens)”, the CD28-dependent proliferation entry in assay [1] is “abrogated CD28-dependent proliferation”. Further, the IL-2 secretion entry in the assay with IL-2 is “marked decrease in IL-2 secretion”. For the same substance, the results for the “induction of Bcl-XL protein” value in the assay with Bcl-XL and with Bcl-XL (listed as CD28PI 87,190A) were “Bcl-XL induction was induced” and “increased Bcl-XL expression”, respectively.

With “CD28Y188F: CD28 mutant which lacked the tyrosine within the PYAP motif (SEQ ID NO: 8) (IWTNSRRLLQSDYMNMTPRRPGLTRKPYQPFAPARDFAAYRP; listed as Homo sapiens)”, the CD28-dependent proliferation result in assay [1] is listed as “less effect”. Further, the IL-2 secretion result in the assay on IL-2 is on record as “comparable to wild type”.
